Data: US20140323575A1, “TYROSINE ISOMERS AS THERAPEUTIC AGENTS” (CONSEJO NACIONAL DE INVESTIGACIONES CIENTIFICAS Y TECNICAS …, priority 2011, published 2014)
“Also recorded” adds a separate entry of the source.

Experiments:
C7HI tumor metastases = experiment: Spontaneous metastases of C7HI mammary adenocarcinoma in vivo; design: species or system mice
Method: FIG. 7A illustrates an experiment in which mice bearing a C7HI tumor for 50 days received, between days 50 and 64, a daily intravenous injection of meta-tyrosine (0.3 mL of 1,000 μg/mL) or saline. Mice were sacrificed at day 50 (n=8, before treatment, primary tumor volume 241±16 mm^3) or at day 65 for treated (n=12, primary tumor volume 1,080±101 mm^3) or control (n=12, primary tumor volume 1,091±88 mm^3) mice, and number and size of macroscopic metastases were determined; d=diameter of metastases in mm; a, P<0.05 (Mann-Whitney U test and Student t test) versus control. […] H&E, hematoxylin and eosin.
Mice bearing a C7HI tumor for 50 days received, between days 50 and 71, a daily intravenous injection of 1.0 mg of meta-tyrosine diluted in 0.1 ml of saline, or saline only. Mice were sacrificed ad day 50 (n=12, before treatment) or at day 71 for treated (n=12) or control (n=12) mice, and number and size of macroscopic metastases were determined; d=diameter of metastases in mm.
C7HI is a breast carcinoma that generates a high number of pulmonary and hepatic metastases, the number of pulmonary metastases being higher than the number of hepatic metastases. In this experiment, 36 mice received one implant each of 5×10^5 tumor C7HI cells. 50 days after implanting the tumor cells, 12 mice were sacrificed for evaluating the number and size of pulmonary and hepatic metastases. The remaining 24 mice were divided in two groups of 12 mice each. The experimental group received 1.0 mg of meta-tyrosine diluted in 0.1 ml of saline per mouse per day. […] The second group (control) received in 0.1 ml of saline per mouse per day. After 21 days of treatment, all mice were sacrificed and the number and size of the metastases were evaluated. […] This inhibitory activity was reflected not only in that the number of metastases of both groups was the same, and in some cases lower, as compared with the number of metastases at the beginning of the treatment (as estimated by the data produced by the 12 mice sacrificed before starting the treatments), but also in that their size was either the same or smaller. This is remarkable because of the 12 experimental mice, there was one showing a low response to the treatment. Should the values measured in this particular mouse be excluded from the pool, the number of metastases at day 71 in the experimental group would have been less than half the number of metastases observed before the start of the treatment at day 50.

CEI tumor = experiment: In vivo growth of s.c. CEI epidermoid carcinoma implants; design: species or system mice; conditions: for effect on growth of CEI tumor implants: mouse, in vivo
Method: Twelve mice received a s.c. implant of 1×10^6 CEI tumor cells in the right flank and 28 days later they received a secondary implant of 3×10^5 CEI tumor cells in the left flank. […] The remaining 6 mice received 0.2 ml of phenylalanine (500 μg/ml) at the site of the secondary implant, daily, for 19 days, starting 1 hour later than the secondary implant. These secondary implants grew as in 6 controls only receiving the implant in the left flank (tumor volumes of secondary tumor+phenylalanine and of controls, 20 days after the implant in the left flank were 358±38 mm^3 and 373±93 mm^3, respectively). […] Significance: Secondary tumor and control+m-tyrosine vs. control: p<0.01; vs. secondary tumor+phenylalanine: p<0.001.

ERK1 and ERK2 = experiment: Western blot of p-ERK 1/2 in LB tumor cells; type: cell-based, mice; conditions: LB cells cultured 3 minutes with m-tyrosine (250 μg/mL)
Method: (§1) FIG. 8 illustrates the effect of meta-tyrosine on the expression of phosphorylated (p)-Erk 1/2 and p-STAT3 in LB tumor cells using Western blot: 3×10^5 LB tumor cells in 0.1 mL of medium were cultured in the presence of 0.1 mL of meta-tyrosine (m-Tyr; 250 μg/mL), phenylalanine (Phe, 250 μg/mL), meta-tyrosine (250 μg/mL)+phenylalanine (250 μg/mL), or saline for 3 minutes (to measure p-ERK 1/2) or for 8 hours (to measure p-STAT3). Positive control was obtained by treating LB cells with pervanadate. Controls with acting, total ERK 1/2, and total STAT3 were also added. FIG. 8A illustrates a representative experiment showing p-ERK 1/2 expression. FIG. 8B is a histogram showing the mean of 5 experiments; a, P<0.01 versus saline and versus meta-tyrosine+phenylalanine; P<0.02 versus phenylalanine. FIG. 8C illustrates a representative experiment showing p-STAT3 expression. […]
(§2) On this basis, we analyzed, first, the effect of m-tyrosine on ERK1 and ERK2 as 2 examples of protein kinases that are activated by the mitogen activated protein/extracellular signal-regulated kinase (MAP/ERK) signal transduction pathway that normally couples intracellular responses associated with cell proliferation, to the binding of growth factors to cell surface receptors (Kohno M, and Pouyssegur J. 2006. Targeting the ERK signaling pathway in cancer therapy. Ann Med; 38:200-211). […]

STAT3 = experiment: Western blot of p-STAT3 in LB tumor cells; type: cell-based, mice; conditions: LB cells cultured 8 hours with m-tyrosine (250 μg/mL)
Method: as §1, §2

CEI tumor cells = experiment: In vitro proliferation of CEI tumor cells; type: cell-based; conditions: dose-dependent, not shown
[1] = 1.0 mg per mouse per day, intravenous, 21 days

Structure (SMILES)	difference between size of primary tumors at day 71, experimental versus controls (C7HI tumor metastases; 1.0 mg daily intravenous, days 50 to 71)	growth of microscopic metastases (C7HI tumor metastases; [1])	hepatic metastases at day 71 (C7HI tumor metastases; [1])	growth of established macroscopic pulmonary metastases (C7HI tumor metastases; 1.0 mg per mouse per day, intravenous, 21 days (days 50-71))	primary tumor volume at day 65 (C7HI tumor metastases; daily intravenous 0.3 mL of 1,000 μg/mL, days 50 to 64)	established spontaneous C7HI lung metastases (C7HI tumor metastases; daily intravenous 0.3 mL of 1,000 μg/mL, days 50 to 64 (FIG. 7), listed as m-tyrosine)	tumor volume 20 days after the implant in the left flank (CEI tumor; CEI implant in left flank only, 0.2 ml of 500 μg/ml daily for 19 days at the site of the implant) [mm^3]	effect on growth of CEI tumor implants (CEI tumor)	activation of ERK1 and ERK2 (p-ERK 1/2 expression) (ERK1 and ERK2)	activation of STAT3 (p-STAT3 expression) (STAT3)	in vitro proliferation of CEI tumor cells (CEI tumor cells)	effect on C7HI metastases, experiment repeated with orto-tyrosine (C7HI tumor metastases; mouse, in vivo)
NC(Cc1cccc(O)c1)C(=O)O (centres unmarked) [meta-tyrosine, 3-hydroxyphenylalanine]	not significant	prevented growth	no metastases were detected	prevented the growth	1,080±101 mm^3	less metastatic foci; also recorded: sharp inhibitory effects	0	sharp inhibitory effects	significantly reduced	significantly reduced	inhibited	
NC(Cc1ccccc1O)C(=O)O (centres unmarked) [ortho-tyrosine, 2-hydroxyphenylalanine]								inhibitory			inhibited	inhibitory effect
